Tests used:
Assay type in all cases: cell-based
[1] = tested on: HCT-116 colorectal cancer cell line; experiment: CCK-8 proliferation inhibition; settings: Homo sapiens, HCT-116, 72 h, concentration of 30 μM; 72 hours; CCK-8; read-out: HCT116 inhibition rate/%
Summary of the method: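 Cells seeded at 2000 cells/well, cultured overnight at 37 °C, 5% CO2, then exposed to compound (DMSO; control 1‰ DMSO) for 72 h in McCoy's 5A with 10% newborn bovine serum. Viability read with 1:10 diluted CCK-8.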

[2] = tested on: Enterococcus faecalis (EFA); experiment: MIC, two-fold agar dilution (CLSI), clinical isolates
Summary of the method: (§1)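 Samples are serially diluted two-fold in agar following CLSI guidance. Plates are then inoculated with the tested strains. The lowest inhibiting concentration is recorded as MIC.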

[3] = tested on: methicillin-sensitive Staphylococcus epidermidis (MSSE); experiment: as above; settings: for Anti-bacterial activity (MIC), strain MSSE 15-3: clinical isolate MSSE 15-3; for Anti-bacterial activity (MIC), strain MSSE 15-4: clinical isolate MSSE 15-4; for Anti-bacterial activity (MIC), strain MSSE 15-5: clinical isolate MSSE 15-5; for Anti-bacterial activity (MIC), strain MSSE 15-6: clinical isolate MSSE 15-6
Summary of the method: as §1

[4] = tested on: methicillin-resistant Staphylococcus epidermidis (MRSE); experiment: as above; settings: for Anti-bacterial activity (MIC), strain MRSE 15-1: clinical isolate MRSE 15-1; for Anti-bacterial activity (MIC), strain MRSE 15-2: clinical isolate MRSE 15-2; for Anti-bacterial activity (MIC), strain MRSE 15-3: clinical isolate MRSE 15-3; for Anti-bacterial activity (MIC), strain MRSE 15-7: clinical isolate MRSE 15-7
Summary of the method: as §1

[5] = tested on: Enterococcus faecium (EFM); experiment: as above
Summary of the method: as §1

[6] = tested on: Streptococcus pneoumoniae (SPN); experiment: as above
Summary of the method: as §1

[7] = tested on: Escherichia coli (including ESBLs, non-ESBLs); experiment: as above; settings: for Anti-bacterial activity (MIC), strain ECO+ 15-1: clinical isolate ECO+ 15-1; for Anti-bacterial activity (MIC), strain ECO+ 15-2: clinical isolate ECO+ 15-2; for Anti-bacterial activity (MIC), strain ECO+ 15-3: clinical isolate ECO+ 15-3; for Anti-bacterial activity (MIC), strain ECO+ 15-4: clinical isolate ECO+ 15-4; for Anti-bacterial activity (MIC), strain ECO− 15-1: clinical isolate ECO− 15-1; for Anti-bacterial activity (MIC), strain ECO− 15-2: clinical isolate ECO− 15-2; for Anti-bacterial activity (MIC), strain ECO− 15-3: clinical isolate ECO− 15-3; for Anti-bacterial activity (MIC), strain ECO− 15-4: clinical isolate ECO− 15-4
Summary of the method: as §1

[8] = tested on: Moraxella catarrhalis (BCA); experiment: as above
Summary of the method: as §1

[9] = tested on: methicillin-resistant Staphylococcus aureus (MRSA); experiment: as above; settings: for Anti-bacterial activity (MIC), strain MRSA 15-1: clinical isolate MRSA 15-1; for Anti-bacterial activity (MIC), strain MRSA 15-2: clinical isolate MRSA 15-2; for Anti-bacterial activity (MIC), strain MRSA 15-3: clinical isolate MRSA 15-3; for Anti-bacterial activity (MIC), strain MRSA 15-4: clinical isolate MRSA 15-4
Summary of the method: as §1

[10] = tested on: methicillin-sensitive Staphylococcus aureus (MSSA); experiment: as above; settings: for Anti-bacterial activity (MIC), strain MSSA 15-3: clinical isolate MSSA 15-3; for Anti-bacterial activity (MIC), strain MSSA 15-4: clinical isolate MSSA 15-4; for Anti-bacterial activity (MIC), strain MSSA 15-5: clinical isolate MSSA 15-5; for Anti-bacterial activity (MIC), strain MSSA 15-6: clinical isolate MSSA 15-6
Summary of the method: as §1

CCCC[C@H](CC(=O)NO)C(=O)N1CC2(CC2)C[C@H]1c1nc2ccccc2n1CCN(C)C [Example 60, (R)-3-((S)-6-(1-(2-(dimethylamino)ethyl)-1H-benzimidazol-2-yl)-5-azaspiro[2.4]heptane-5-carbonyl)-N-hydroxyheptanamide]
inhibition at 30 µM [1]: -2%
Anti-bacterial activity (MIC), strain EFA 15-1 ([2]; clinical isolate EFA 15-1): > 32 µg/mL
Anti-bacterial activity (MIC), strain EFA 15-2 ([2]; clinical isolate EFA 15-2): > 32 µg/mL
Anti-bacterial activity (MIC), strain EFA 15-3 ([2]; clinical isolate EFA 15-3): > 32 µg/mL
Anti-bacterial activity (MIC), strain EFA 15-4 ([2]; clinical isolate EFA 15-4): > 32 µg/mL
Anti-bacterial activity (MIC), strain EFA 15-5 ([2]; clinical isolate EFA 15-5): > 32 µg/mL
Anti-bacterial activity (MIC), strain EFA 15-6 ([2]; clinical isolate EFA 15-6): > 32 µg/mL
Anti-bacterial activity (MIC), strain EFA 15-9 ([2]; clinical isolate EFA 15-9): > 32 µg/mL
Anti-bacterial activity (MIC), strain MSSE 15-3 [3]: > 32 µg/mL
Anti-bacterial activity (MIC), strain MSSE 15-4 [3]: > 32 µg/mL
Anti-bacterial activity (MIC), strain MSSE 15-5 [3]: > 32 µg/mL
Anti-bacterial activity (MIC), strain MSSE 15-6 [3]: > 32 µg/mL
Anti-bacterial activity (MIC), strain MRSE 15-1 [4]: > 32 µg/mL
Anti-bacterial activity (MIC), strain MRSE 15-2 [4]: > 32 µg/mL
Anti-bacterial activity (MIC), strain MRSE 15-3 [4]: > 32 µg/mL
Anti-bacterial activity (MIC), strain MRSE 15-7 [4]: > 32 µg/mL
Anti-bacterial activity (MIC), strain EFM 15-1 ([5]; clinical isolate EFM 15-1): > 32 µg/mL
Anti-bacterial activity (MIC), strain EFM 15-2 ([5]; clinical isolate EFM 15-2): > 32 µg/mL
Anti-bacterial activity (MIC), strain EFM 15-3 ([5]; clinical isolate EFM 15-3): > 32 µg/mL
Anti-bacterial activity (MIC), strain EFM 15-4 ([5]; clinical isolate EFM 15-4): > 32 µg/mL
Anti-bacterial activity (MIC), strain EFM 15-5 ([5]; clinical isolate EFM 15-5): 8 µg/mL
Anti-bacterial activity (MIC), strain EFM 15-6 ([5]; clinical isolate EFM 15-6): 32 µg/mL
Anti-bacterial activity (MIC), strain SPN 16-2 ([6]; clinical isolate SPN 16-2): 1 µg/mL
Anti-bacterial activity (MIC), strain SPN 16-4 ([6]; clinical isolate SPN 16-4): 1 µg/mL
Anti-bacterial activity (MIC), strain ECO+ 15-1 [7]: > 32 µg/mL
Anti-bacterial activity (MIC), strain ECO+ 15-2 [7]: > 32 µg/mL
Anti-bacterial activity (MIC), strain ECO+ 15-3 [7]: > 32 µg/mL
Anti-bacterial activity (MIC), strain ECO+ 15-4 [7]: > 32 µg/mL
Anti-bacterial activity (MIC), strain ECO− 15-1 [7]: > 32 µg/mL
Anti-bacterial activity (MIC), strain ECO− 15-2 [7]: > 32 µg/mL
Anti-bacterial activity (MIC), strain ECO− 15-3 [7]: > 32 µg/mL
Anti-bacterial activity (MIC), strain ECO− 15-4 [7]: > 32 µg/mL
Anti-bacterial activity (MIC), strain BCA 14-1 ([8]; clinical isolate BCA 14-1): > 32 µg/mL
Anti-bacterial activity (MIC), strain BCA 14-4 ([8]; clinical isolate BCA 14-4): > 32 µg/mL
Anti-bacterial activity (MIC), strain BCA 14-5 ([8]; clinical isolate BCA 14-5): > 32 µg/mL
Anti-bacterial activity (MIC), strain BCA 14-6 ([8]; clinical isolate BCA 14-6): > 32 µg/mL
Anti-bacterial activity (MIC), strain BCA 14-7 ([8]; clinical isolate BCA 14-7): > 32 µg/mL
Anti-bacterial activity (MIC), strain BCA 14-8 ([8]; clinical isolate BCA 14-8): > 32 µg/mL
Anti-bacterial activity (MIC), strain BCA 14-10 ([8]; clinical isolate BCA 14-10): > 32 µg/mL
Anti-bacterial activity (MIC), strain MRSA 15-1 [9]: > 32 µg/mL
Anti-bacterial activity (MIC), strain MRSA 15-2 [9]: > 32 µg/mL
Anti-bacterial activity (MIC), strain MRSA 15-3 [9]: > 32 µg/mL
Anti-bacterial activity (MIC), strain MRSA 15-4 [9]: > 32 µg/mL
Anti-bacterial activity (MIC), strain MSSA 15-3 [10]: > 32 µg/mL
Anti-bacterial activity (MIC), strain MSSA 15-4 [10]: > 32 µg/mL
Anti-bacterial activity (MIC), strain MSSA 15-5 [10]: > 32 µg/mL
Anti-bacterial activity (MIC), strain MSSA 15-6 [10]: > 32 µg/mL

O=C(C[C@@H](CC1CCCC1)C(=O)N1CC2(CC2)C[C@H]1C(=O)NC1CC1)NO [Example 68]
inhibition at 30 µM [1]: 21%
Anti-bacterial activity (MIC) ([2]; strain EFA 15-1): > 32 µg/mL
Anti-bacterial activity (MIC) ([2]; strain EFA 15-2): > 32 µg/mL
Anti-bacterial activity (MIC) ([2]; strain EFA 15-3): > 32 µg/mL
Anti-bacterial activity (MIC) ([2]; strain EFA 15-4): > 32 µg/mL
Anti-bacterial activity (MIC) ([2]; strain EFA 15-5): > 32 µg/mL
Anti-bacterial activity (MIC) ([2]; strain EFA 15-6): > 32 µg/mL
Anti-bacterial activity (MIC) ([2]; strain EFA 15-9): 32 µg/mL
Anti-bacterial activity (MIC), strain MSSE 15-3 [3]: > 32 µg/mL
Anti-bacterial activity (MIC), strain MSSE 15-4 [3]: > 32 µg/mL
Anti-bacterial activity (MIC), strain MSSE 15-5 [3]: > 32 µg/mL
Anti-bacterial activity (MIC), strain MSSE 15-6 [3]: > 32 µg/mL
Anti-bacterial activity (MIC), strain MRSE 15-1 [4]: > 32 µg/mL
Anti-bacterial activity (MIC), strain MRSE 15-2 [4]: > 32 µg/mL
Anti-bacterial activity (MIC), strain MRSE 15-3 [4]: > 32 µg/mL
Anti-bacterial activity (MIC), strain MRSE 15-7 [4]: > 32 µg/mL
Anti-bacterial activity (MIC) ([5]; strain EFM 15-1): > 32 µg/mL
Anti-bacterial activity (MIC) ([5]; strain EFM 15-2): > 32 µg/mL
Anti-bacterial activity (MIC) ([5]; strain EFM 15-3): > 32 µg/mL
Anti-bacterial activity (MIC) ([5]; strain EFM 15-4): 32 µg/mL
Anti-bacterial activity (MIC) ([5]; strain EFM 15-5): 4 µg/mL
Anti-bacterial activity (MIC) ([5]; strain EFM 15-6): 4 µg/mL
Anti-bacterial activity (MIC) ([6]; strain SPN 16-2): 2 µg/mL
Anti-bacterial activity (MIC) ([6]; strain SPN 16-4): 1 µg/mL
Anti-bacterial activity (MIC), strain ECO+ 15-1 [7]: > 32 µg/mL
Anti-bacterial activity (MIC), strain ECO+ 15-2 [7]: > 32 µg/mL
Anti-bacterial activity (MIC), strain ECO+ 15-3 [7]: > 32 µg/mL
Anti-bacterial activity (MIC), strain ECO+ 15-4 [7]: > 32 µg/mL
Anti-bacterial activity (MIC), strain ECO− 15-1 [7]: > 32 µg/mL
Anti-bacterial activity (MIC), strain ECO− 15-2 [7]: > 32 µg/mL
Anti-bacterial activity (MIC), strain ECO− 15-3 [7]: > 32 µg/mL
Anti-bacterial activity (MIC), strain ECO− 15-4 [7]: > 32 µg/mL
Anti-bacterial activity (MIC) ([8]; strain BCA 14-1): 32 µg/mL
Anti-bacterial activity (MIC) ([8]; strain BCA 14-4): 32 µg/mL
Anti-bacterial activity (MIC) ([8]; strain BCA 14-5): 4 µg/mL
Anti-bacterial activity (MIC) ([8]; strain BCA 14-6): 32 µg/mL
Anti-bacterial activity (MIC) ([8]; strain BCA 14-7): 32 µg/mL
Anti-bacterial activity (MIC) ([8]; strain BCA 14-8): 32 µg/mL
Anti-bacterial activity (MIC) ([8]; strain BCA 14-10): 2 µg/mL
Anti-bacterial activity (MIC), strain MRSA 15-1 [9]: > 32 µg/mL
Anti-bacterial activity (MIC), strain MRSA 15-2 [9]: > 32 µg/mL
Anti-bacterial activity (MIC), strain MRSA 15-3 [9]: > 32 µg/mL
Anti-bacterial activity (MIC), strain MRSA 15-4 [9]: > 32 µg/mL
Anti-bacterial activity (MIC), strain MSSA 15-3 [10]: > 32 µg/mL
Anti-bacterial activity (MIC), strain MSSA 15-4 [10]: > 32 µg/mL
Anti-bacterial activity (MIC), strain MSSA 15-5 [10]: > 32 µg/mL
Anti-bacterial activity (MIC), strain MSSA 15-6 [10]: > 32 µg/mL

From patent US10738028B2, “Spiro three-membered ring, spiro five-membered ring peptide deformylase inhibitor and use thereof in antibacteria and anti-tumor” (priority 2016, dated 2020)
